Laboratory results as given in DBAASP.
In brackets after ≈: the same amount, converted by molar mass. Several values for one entry are separate records, joined by “and”; a condition that tells them apart may be missing. Equal values may be shown once.

Key:
Assay in all cases: ≥ marks a high value that may be exact or a test limit, other limits are often not marked, values filed in µg/mL are converted to µM
[1] = system: Klebsiella pneumoniae MTCC 7407
[2] = system: Corynebacterium glutamicum MTCC 2679
[3] = system: Proteus vulgaris MTCC 1771
[4] = system: Shigella boydii MTCC 11947
[5] = system: Acinetobacter baumannii MTCC 9829
[6] = system: Escherichia coli K12 MG1655
[7] = system: Stenotrophomonas maltophilia MTCC 1890
[8] = system: Salmonella enterica MTCC 9844
[9] = system: Shigella flexneri MTCC 1457
[10] = system: Alkalihalobacillus alcalophilus MTCC 860
[11] = system: Enterococcus faecalis MTCC 439
[12] = system: Citrobacter freundii MTCC 1658
[13] = system: Citrobacter koseri MTCC 1657
[14] = system: Staphylococcus aureus MTCC 3160
[15] = system: Alcaligenes faecalis MTCC 1937
[16] = system: Vibrio cholerae MTCC 3904
[17] = system: Bordetella bronchiseptica MTCC 6837
[18] = system: Staphylococcus haemolyticus MTCC 3383
[19] = system: Pseudomonas aeruginosa MTCC 3542
[20] = system: Salmonella enterica subsp. enterica serovar Typhimurium ATCC 14028
[21] = system: Haemophilus influenzae MTCC 621
[22] = system: Pluralibacter gergoviae MTCC 3826
[23] = system: Klebsiella oxytoca MTCC 2275
[24] = system: Proteus mirabilis MTCC 3158
[25] = system: Klebsiella aerogenes MTCC 111
[26] = system: Candida albicans ATCC 90028
[27] = system: Staphylococcus aureus NCTC 8325
[28] = system: Batrachochytrium dendrobatidis
[29] = system: Escherichia coli ATCC 25922
[30] = system: Pseudomonas aeruginosa CICC 21630
Escherichia coli K99 = system: Escherichia coli K99
Escherichia coli K88 = system: Escherichia coli K88
[31] = system: Pseudomonas aeruginosa CICC 21625
[32] = system: Pseudomonas aeruginosa PAO1
Acinetobacter baumannii = system: Acinetobacter baumannii
Klebsiella pneumoniae = system: Klebsiella pneumoniae
Pseudomonas aeruginosa = system: Pseudomonas aeruginosa
Escherichia coli UB1005 = system: Escherichia coli UB1005
[33] = system: Salmonella enterica subsp. enterica serovar Typhimurium C77-31
[34] = system: Pseudomonas aeruginosa ATCC 27853
Escherichia coli = system: Escherichia coli
[35] = system: Salmonella enterica subsp. enterica serovar Pullorum C79-13

MIC [29] [µM] | SMILES | MIC [1] [µM] | MIC [2] [µM] | MIC [3] [µM] | MIC [4] [µM] | MIC [5] [µM] | MIC [6] [µM] | MIC [7] [µM] | MIC [8] [µM] | MIC [9] [µM] | MIC [10] [µM] | MIC [11] [µM] | MIC [12] [µM] | MIC [13] [µM] | MIC [14] [µM] | MIC [15] [µM] | MIC [16] [µM] | MIC [17] [µM] | MIC [18] [µM] | MIC [20] [µM] | also measured
– | CC(C)C[C@H](NC(=O)[C@H](Cc1cnc[nH]1)NC(=O)[C@H](CCCN=C(N)N)NC(=O)[C@H](CC(C)C)NC(=O)[C@H](CCCN=C(N)N)NC(=O)[C@H](CCC(N)=O)NC(=O)[C@@H](NC(=O)[C@H](C)NC(=O)[C@H](CCCN=C(N)N)NC(=O)[C@H](CCCN=C(N)N)NC(=O)[C@H](C)NC(=O)[C@@H](NC(=O)[C@H](CCCN=C(N)N)NC(=O)[C@H](Cc1c[nH]c2ccccc12)NC(=O)[C@@H](N)CCC(=O)O)C(C)C)C(C)C)C(=O)N[C@@H](C)C(=O)N[C@@H](CCCN=C(N)N)C(=O)N[C@@H](CCCN=C(N)N)C(=O)N[C@@H](Cc1ccc(O)cc1)C(=O)N[C@@H](Cc1cnc[nH]1)C(=O)O [EWRVARRAVQRLRHLARRYH] | ≥ 48.7 | 0.38 (≈ 1 µg/mL) | ≥ 48.7 | 3.04 (≈ 8 µg/mL) | 6.08 (≈ 16 µg/mL) | 6.08 (≈ 16 µg/mL) | 24.3 (≈ 64 µg/mL) | 6.08 (≈ 16 µg/mL) | 0.38 (≈ 1 µg/mL) | 6.08 (≈ 16 µg/mL) | ≥ 48.7 | 24.3 (≈ 64 µg/mL) | 6.08 (≈ 16 µg/mL) | ≥ 48.7 | ≥ 48.7 | ≥ 48.7 | 0.76 (≈ 2 µg/mL) | 6.08 (≈ 16 µg/mL) | 6.08 (≈ 16 µg/mL) | MIC [19]: ≥ 48.7 µM; MIC [21]: 3.04 µM (≈ 8 µg/mL); MIC [22]: ≥ 48.7 µM; MIC [23]: 3.04 µM (≈ 8 µg/mL); MIC [24]: ≥ 48.7 µM; MIC [25]: ≥ 48.7 µM
13 (≈ 38.3 µg/mL) | CC[C@H](C)[C@@H]1NC(=O)[C@H](CCCCN)NC(=O)[C@@H](NC(=O)[C@H](CCCCN)NC(=O)[C@H](CC(C)C)NC(=O)[C@H](CCCCN)NC(=O)[C@H](CC(=O)O)NC(=O)[C@H](CC(C)C)NC(=O)[C@H](CCSC)NC(=O)[C@H](Cc2cnc[nH]2)NC(=O)CNC(=O)[C@H](C)NC(=O)[C@H](CC(C)C)NC(=O)[C@H](CC(N)=O)NC(=O)[C@H](CCCCN)NC(=O)[C@H](C)NC(=O)[C@@H](NC(=O)[C@H](CC(N)=O)NC(=O)[C@H](CCCCN)NC(=O)[C@@H](NC(=O)[C@@H](NC(=O)[C@H](CC(=O)O)NC(=O)[C@H](CCSC)NC(=O)[C@@H](N)CC(C)C)[C@@H](C)O)C(C)C)C(C)C)CSSC[C@@H](C(=O)O)NC(=O)CNC(=O)[C@H]([C@@H](C)O)NC1=O [LMDTVKNVAKNLAGHMLDKLKCKITGC] | – | – | – | – | – | – | – | – | – | – | – | – | – | – | – | – | – | – | – | MIC [26]: ≥ 67 µM; MIC [27]: ≥ 50 µM; MIC [28]: ≥ 100 µM
2 (≈ 4.55 µg/mL) | CC(C)C[C@H](NC(=O)[C@@H]1CCCN1C(=O)[C@H](CCCCN)NC(=O)[C@H](CC(C)C)NC(=O)[C@H](CC(C)C)NC(=O)[C@@H]1CCCN1C(=O)[C@H](CCCCN)NC(=O)[C@H](CC(C)C)NC(=O)[C@H](CC(C)C)NC(=O)[C@@H]1CCCN1C(=O)[C@H](CCCCN)NC(=O)[C@H](CC(C)C)NC(=O)[C@H](CC(C)C)NC(=O)[C@@H]1CCCN1C(=O)[C@H](CCCCN)NC(=O)[C@H](CC(C)C)NC(=O)[C@H](CC(C)C)NC(=O)[C@@H]1CCCN1C(=O)[C@H](CCCCN)NC(=O)[C@@H](N)CC(C)C)C(N)=O [LKPLLKPLLKPLLKPLLKPL] | – | – | – | – | – | – | – | – | – | – | – | – | – | – | – | – | – | – | 8 (≈ 18.2 µg/mL) | MIC [30]: ≥ 32 µM; MIC (Escherichia coli K99): 2 µM (≈ 4.55 µg/mL); MIC (Escherichia coli K88): 2 µM (≈ 4.55 µg/mL); MIC [31]: ≥ 64 µM; MIC [32]: > 64 µM; MIC (Acinetobacter baumannii): 4 µM (≈ 9.1 µg/mL); MIC (Klebsiella pneumoniae): 32 µM (≈ 72.8 µg/mL); MIC (Pseudomonas aeruginosa): 32 µM (≈ 72.8 µg/mL); MIC (Escherichia coli UB1005): 2 µM (≈ 4.55 µg/mL); MIC [33]: 16 µM (≈ 36.4 µg/mL); MIC [34]: 16 µM (≈ 36.4 µg/mL); MIC (Escherichia coli): 4 µM (≈ 9.1 µg/mL); MIC [35]: 4 µM (≈ 9.1 µg/mL)
140 (≈ 196 µg/mL) | CC[C@H](C)[C@H](NC(=O)[C@H](CC(C)C)NC(=O)[C@@H]1CCCN1C(=O)[C@H](CC(C)C)NC(=O)[C@@H](N)Cc1ccccc1)C(=O)NCC(=O)N[C@@H](CCCCN)C(=O)N[C@H](C(=O)N[C@@H](CC(C)C)C(=O)NCC(=O)N[C@H](C(=O)N[C@H](C(=O)N[C@@H](CC(C)C)C(N)=O)[C@@H](C)CC)[C@@H](C)O)[C@@H](C)CC [FLPLIGKILGTIL] | – | – | – | – | – | – | – | – | – | – | – | – | – | – | – | – | – | – | – | MIC [26]: ≥ 150 µM; MIC [27]: 5 µM (≈ 6.98 µg/mL); MIC [28]: ≥ 50 µM and 25 µM
– | CC(C)C[C@H](NC(=O)[C@H](CCCCN)NC(=O)CNC(=O)[C@H](C)NC(=O)[C@H](CCCN=C(N)N)NC(=O)[C@H](CO)NC(=O)[C@@H](N)CCC(=O)O)C(=O)N[C@@H](C)C(=O)N[C@@H](C)C(=O)N[C@@H](CCCCN)C(=O)N[C@@H](C)C(=O)N[C@@H](C)C(=O)N[C@@H](Cc1ccccc1)C(=O)N[C@@H](CCCCN)C(=O)N[C@@H](C)C(=O)N[C@@H](C)C(=O)N[C@@H](CCCCN)C(=O)N[C@@H](CCCN=C(N)N)C(=O)O [ESRAGKLAAKAAFKAAKR] | ≥ 68.3 | ≥ 68.3 | ≥ 68.3 | ≥ 68.3 | ≥ 68.3 | ≥ 68.3 | ≥ 68.3 | ≥ 68.3 | ≥ 68.3 | ≥ 68.3 | ≥ 68.3 | ≥ 68.3 | ≥ 68.3 | ≥ 68.3 | ≥ 68.3 | ≥ 68.3 | ≥ 68.3 | ≥ 68.3 | > 68.3 | MIC [19]: ≥ 68.3 µM; MIC [21]: ≥ 68.3 µM; MIC [22]: ≥ 68.3 µM; MIC [23]: ≥ 68.3 µM; MIC [24]: ≥ 68.3 µM; MIC [25]: ≥ 68.3 µM
